Source: the NIST ThermoML archive (doi:10.1016/j.fluid.2006.01.008)

How the values were obtained:
[1] = xn = mol fraction of the nth substance listed; details: 298.15 K, 101 kPa, Liquid; for viscosity: Capillary tube (Ostwald / Ubbelohde) method; for speed of sound: Sing-around technique in a fixed-path interferometer; for mass density: Vibrating tube method
[2] = refractive index (Na D-line) (dimensionless); xn = mol fraction of the nth substance listed; details: 298.15 K, 101 kPa, Liquid, Standard Abbe refractometry
[3] = refractive index (Na D-line) (dimensionless); details: 298.15 K; 101.33 kPa; Liquid; Standard Abbe refractometry
[4] = 298.15 K, 101.33 kPa, Liquid; for viscosity: Capillary tube (Ostwald / Ubbelohde) method; for speed of sound: Sing-around technique in a fixed-path interferometer; for mass density: Vibrating tube method

CCCCCCCC[n+]1ccn(C)c1.F[B-](F)(F)F [1-methyl-3-octylimidazolium tetrafluoroborate] + CCO
Details | mass density, [1] [kg/m3] | refractive index, [2] | speed of sound, [1] [m/s] | viscosity, [1] [mPa·s]
x1 = 0.0517 | 849.43 | 1.37489 | 1195 | 1.74
x1 = 0.0818 | 878.24 | 1.38179 | 1218 | 2.25
x1 = 0.1822 | 946.85 | 1.39805 | 1287 | 4.722
x1 = 0.2779 | 988.78 | 1.40778 | 1336 | 8.542
x1 = 0.378 | 1019.53 | 1.41488 | 1376 | 14.99
x1 = 0.46 | 1038.64 | 1.41926 | 1398 | 23.42
x1 = 0.5474 | 1054.97 | 1.42304 | 1419 | 37.38
x1 = 0.5537 | 1056.01 | 1.42326 | 1420 | 38.62
x1 = 0.5636 | 1057.63 | 1.42362 | 1422 | 40.81
x1 = 0.6203 | 1066.22 | 1.4256 | 1434 | 54.88
x1 = 0.662 | 1071.9 | 1.42683 | 1441 | 67.91
x1 = 0.7749 | 1085.35 | 1.42973 | 1459 | 120.4
x1 = 0.9286 | 1099.7 | 1.43293 | 1481 | 251.9

CCCCCCCC[n+]1ccn(C)c1.F[B-](F)(F)F [1-methyl-3-octylimidazolium tetrafluoroborate] + CO
Details | mass density, [1] [kg/m3] | refractive index, [2] | speed of sound, [1] [m/s] | viscosity, [1] [mPa·s]
x1 = 0.0495 | 869.02 | 1.35534 | 1188 | 0.981
x1 = 0.0979 | 921.23 | 1.3733 | 1243 | 1.622
x1 = 0.1997 | 986.4 | 1.39501 | 1323 | 3.85
x1 = 0.2859 | 1018.55 | 1.40551 | 1366 | 7.131
x1 = 0.3648 | 1038.89 | 1.41222 | 1394 | 11.81
x1 = 0.4461 | 1054.52 | 1.41738 | 1416 | 18.9
x1 = 0.4922 | 1061.78 | 1.41982 | 1426 | 24.16
x1 = 0.5121 | 1064.62 | 1.42076 | 1430 | 27.22
x1 = 0.5709 | 1072.21 | 1.42339 | 1440 | 38.28
x1 = 0.5972 | 1075.25 | 1.42443 | 1445 | 44.63
x1 = 0.6485 | 1080.67 | 1.42629 | 1452 | 57.72
x1 = 0.785 | 1092.37 | 1.43029 | 1469 | 123.9
x1 = 0.9049 | 1100.21 | 1.43284 | 1482 | 228.6

CCO [ethanol]
Details | mass density [kg/m3] | refractive index | speed of sound [m/s] | viscosity [mPa·s]
[3] | – | 1.3592 | – | –
[4] | 785.22 | – | 1144 | 1.077

CO [methanol]
Details | mass density [kg/m3] | refractive index | speed of sound [m/s] | viscosity [mPa·s]
[3] | – | 1.3264 | – | –
[4] | 786.63 | – | 1102 | 0.541

CCCO [propan-1-ol]
Details | mass density [kg/m3] | refractive index | speed of sound [m/s] | viscosity [mPa·s]
[3] | – | 1.38306 | – | –
[4] | 799.47 | – | 1207 | 1.928

CC(C)O [propan-2-ol]
Details | mass density [kg/m3] | refractive index | speed of sound [m/s] | viscosity [mPa·s]
[3] | – | 1.3752 | – | –
[4] | 780.95 | – | 1140 | 2.054
